From EP0342558A2, “2-amino-4,5-methyleneadipic acid compounds for treatment of CNS disorders” (priority 1988, dated 1989)
Marks after values point to notes of the source that are not given here.

How the values were obtained:
[1] = test system: mungbean seedling growth; conditions: cited from earlier work
[2] = test system: 15-day-old chick embryo retina; conditions: 1 mM, incubated for 30 minutes in BSS, pilot studies; cited from earlier work
[3] = test system: 15-day-old chick embryo retina; conditions: agonist alone, 30 minutes, pilot experiments
From the text: This assay is adapted from procedures described in literature sources [Olney, J.W., Price, M.T., Fuller, T.A., Labruyere, J., Samson, L., Carpenter, M., Mahan, K., "The Anti-Excitotoxic Effects of Certain Anesthetics, Analgesics and Sedative-Hypnotics", Neuroscience Letters, 68, 29-34, (1986)]. By an approach similar to that earlier described [Reif-Lehrer, L., Bergenthal, J. and Hanninen, L., "Effects of Monosodium Glutamate on Chick Embryo Retina in Culture", Invest. Ophthalmol., 14, 114-124, (1975)], 15-day-old chick embryos were decapitated and their eyes removed and cut into quadrants after excising the cornea and removing the lens, vitreous and iris. The retinal quadrants were then gently separated from the pigment epithelium and incubated for 30 minutes at 37°C in a standard balanced salt solution (BSS) to which test compounds, either excitatory amino acid agonists or potential antagonists or both, were added in various concentrations. As described elsewhere [Olney, J.W., Price, M.T., Samson, L. and Labruyere, J., "The Role of Specific Ions in Glutamate Neurotoxicity". Neurosci. Lett.. […]

[4] = biological target: NMDA; assay: Glutamate binding assay, NMDA-specific L-[³H]glutamate binding to synaptic plasma membranes; conditions: 12.5 nM L-[³H]glutamate, SPM, 0-4°C, 10 minutes
Method: (§1) The purpose of this assay is to determine the binding affinity of a compound of Formula I for the three glutamic acid receptor sub-types. (NMDA, QUIS, Kainate). It is expected that a compound interacting with one of these sub-type receptors will mimic or antagonize the effect of the endogenous ligand and thereby have a memory enhancing effect or have a neuroprotective and/or anti-epileptic effects. This procedure was carried out as follows:
(§2) Synaptic plasma membranes (SPM) were prepared as previously described [Monahan, J.B. and Michel, J., "Identification and Characterization of an N-methyl-D-aspartate-specific L-[³H]glutamate Recognition Site in Synaptic Plasma Membranes, J. Neurochem., 48, 1699-1708 (1987)]. The SPM were stored at a concentration of 10-15 mg/ml in 0.32M sucrose, 0.5 mM EDTA, 1mM MgSO₄, 5 mM Tris/SO₄, pH 7.4, under liquid nitrogen. The identity and purity of the subcellular fractions were confirmed by both electron microscopy and marker enzymes. Protein concentrations were determined by using a modification of the method of Lowry [Ohnishi, S.T. and Barr, J.K., "A Simplified Method of Quantitating Proteins Using the Biuret and Phenol Reagents", Anal. Biochem., 86, 193-197 (1978)]. The SPM were treated identically for the [³H]AMPA (QUIS), [³H]kainate and NMDA-specific L-[³H]glumatate binding assays. The SPM were thawed at room temperature, diluted twenty-fold with 50mM Tris/-acetate, pH 7.4, incubated at 37°C for 30 minutes, and centrifuged at 100,000 g for 15 minutes. The dilution, incubation, and centrifugation was repeated a total of three times. The basic procedure for the receptor subclass binding assays was similar. This general method involved adding the radioligand (12.5 nM L-[³H]glutamate; 0.5 nM [³H]kainate or 10nM L-[³H]AMPA) to the appropriate concentration of the test compound and initiating the assay by the addition of ice cold SPM (0.2-0.45 mg). The binding assays were performed in 1.5 ml centrifuge tubes with the total volume adjusted to 1.0 ml. Additions of test compounds were made in 50 mM Tris/acetate, pH 7.4 and incubations were carried out at 0-4°C. The incubation time for the NMDA and the AMPA binding assays was 10 minutes and for the kainate binding assay 60 minutes. The AMPA binding assay contained 100 mM KSCN. […] The supernatant was aspirated and the pelleted membranes dissolved in Beckman Ready-Protein scintillation cocktail and the samples counted on a Beckman LS 5800 or 3801 liquid scintillation counter with automatic corrections for quenching and counting efficiency. […] Radioligand binding to the SPM was analyzed using Scatchard and Hill transformations and the Ki values of the compounds determined using logit-log transformations. […]

[5] = biological target: Kainate; assay: Glutamate binding assay, [³H]kainate binding to synaptic plasma membranes; conditions: 0.5 nM [³H]kainate, SPM, 0-4°C, 60 minutes
Method: as §1, §2

[6] = biological target: QUIS; assay: Glutamate binding assay, [³H]AMPA (QUIS) binding to synaptic plasma membranes; conditions: 10nM [³H]AMPA, 100 mM KSCN, SPM, 0-4°C, 10 minutes
Method: as §1, §2

[7] = test system: NMDA neurotoxicity; assay: In vitro chick retina assay, protection against NMDA; format: cell-based; conditions: for % protection vs NMDA: NMDA 200 µM; for Antagonist activity vs NMDA: concentration required to completely prevent toxicity of NMDA (200 µM), 30 minutes at 37°C
From the text: (§3) This assay is adapted from procedures described in literature sources [Olney, J.W., Price, M.T., Fuller, T.A., Labruyere, J., Samson, L., Carpenter, M., Mahan, K., "The Anti-Excitotoxic Effects of Certain Anesthetics, Analgesics and Sedative-Hypnotics", Neuroscience Letters, 68, 29-34, (1986)]. By an approach similar to that earlier described [Reif-Lehrer, L., Bergenthal, J. and Hanninen, L., "Effects of Monosodium Glutamate on Chick Embryo Retina in Culture", Invest. Ophthalmol., 14, 114-124, (1975)], 15-day-old chick embryos were decapitated and their eyes removed and cut into quadrants after excising the cornea and removing the lens, vitreous and iris. The retinal quadrants were then gently separated from the pigment epithelium and incubated for 30 minutes at 37°C in a standard balanced salt solution (BSS) to which test compounds, either excitatory amino acid agonists or potential antagonists or both, were added in various concentrations. As described elsewhere [Olney, J.W., Price, M.T., Samson, L. and Labruyere, J., "The Role of Specific Ions in Glutamate Neurotoxicity". Neurosci. Lett.. […] After incubation for 30 minutes, the retinal quadrants were fixed by immersion in phosphate-buffered solution containing 1.5% glutaraldehyde and 1% paraformaldehyde, then additionally fixed in 1% osmium tetroxide and embedded in araldite, allowing sections to be cut for either light or electron microscopy [Olney, J.W., "Glutamate-Induced Retinal Degeneration in Neonatal Mice. Electron Microscopy of the Acutely Evolving Lesion", J. Neuropathol. Exp. Neurol., 28, 455-474, (1969)]. […] Neurosci. […] For purposes of the present study, NMDA and KA were the agonists employed and numerous potential antagonists were tested at various concentrations for their ability to prevent NMDA or KA neurotoxicity. […] Internal controls on each experiment consisted of at least 6 specimens being incubated with agonist alone (NMDA 200 µM or KA 25 µM). […]

[8] = test system: KA neurotoxicity; assay: In vitro chick retina assay, protection against KA; format: cell-based; conditions: concentration required to completely prevent toxicity of KA (25 µM); 30 minutes at 37°C
From the text: as §3

[9] = test system: QA; assay: In vitro chick retina assay, protection against QA; format: cell-based; conditions: 30 minutes at 37°C; QA concentration not given
[10] = test system: rat brain synaptic membranes (SPM); assay: [³H]TCP modulation assay; format: binding
Method: The effect on [³H]TCP (1-[1-(2-thienyl)-cyclohexyl]piperidine) binding was measure in rat brain synaptic membranes (SPM) prepared as previously described (J.B. Monahan and J. Michel; J. Neurochem., 48, 1699-1708, (1987)). Prior to their use in the binding assay, frozen SPM were thawed, diluted twenty fold with 50 mM Tris/acetate, pH 7.4 containing 0.04% (v/v) Triton X-100, incubated for 30 min., at 37°C and centrifuged at 95,000 xspg for 15 min. The Triton X-100 treated SPM were washed with 5 mM Tris/HCl, pH 7.4 and centrifuged a total of six times. The compounds of the invention were incubated with SPM (0.2-0.4 mg protein) and 2 nM [³H]TCP in a total volume of 0.5 ml of 5 mM Tris/HCl buffer pH 7.4 at 25°C for 60 min. The samples were filtered through glass fiber filters (Schleicher & Schuell #32) which have been pretreated with 0.05% (v/v) polyethylenimine, washed with 2 ml of ice-cold 5 mM Tris/HCl buffer, and then counted on a Beckman LS 5800 liquid scintillation counter with automatic corrections for quenching and counting efficiency. Antagonist character was defined as the ability of the test compound to inhibit [³H]TCP binding in the presence of 1 µM L-glutamate, while agonist character is shown by stimulation of either basal [³H]TCP binding or the binding in the presence of 10 µM D-AP7, a specific competitive NMDA antagonist. Non specific binding was defined as the residual binding in the presence of 60 µM phencyclidine.

## NC(C(=O)O)[C@@H]1C[C@@H]1C(=O)O (relative stereo) [cis-α-(carboxycyclopropyl)glycine]
[1]
  inhibition of mungbean seedling growth: potent inhibitor

## N[C@@H](CCC(=O)O)C(=O)O [Glu, Glutamate]
[2]
  retinal lesion: a fully developed lesion occurs

## C=C(C)[C@H]1CN[C@H](C(=O)O)[C@H]1CC(=O)O [KA, Kainate]
[3]
  lowest concentrations required to consistently obtain fully developed retinal lesions: 25 µM

## CN[C@H](CC(=O)O)C(=O)O [NMDA, N-methyl-D-aspartate]
[3]
  lowest concentrations required to consistently obtain fully developed retinal lesions: 200 µM

## N[C@H](CC1CC1C(=O)O)C(=O)O (stereo partly drawn) [cis-D-2-amino-4,5-methyleneadipic acid, Cis-D-2-amino-4,5-methyleneadipic acid]
[4]
  Ki: 1.9 µM
[5]
  Binding Ki KA: 13.0 µM
[6]
  Ki: > 300 µM
[7]; compound at 10 µM
  % protection vs NMDA: 10(0%)*
[7]; compound at 25 µM
  % protection vs NMDA: 25(33%)*
[7]; compound at 50 µM
  % protection vs NMDA: 50(66%)*
[7]; compound at >75 µM
  % protection vs NMDA: 100%
[7]
  Antagonist activity vs NMDA: > 75 µM
[8]
  Antagonist activity vs KA: >500 µM
[9]
  Antagonist activity vs QA: >500 µM
[10]; compared with the full agonist glutamate
  maximal stimulation of [³H]TCP binding: substantially less than that shown for the full agonist glutamate
[10]; compound 100 µM, in presence of D-AP7 (10µM), control without compound 5016
  [³H]TCP Bound: 11453 DPM
[10]; compound 100 µM, in presence of L-Glutamate (1µM), control without compound 15466
  [³H]TCP Bound: 12265 DPM
[10]; compound 200 µM, in presence of D-AP7 (10µM), control without compound 5016
  [³H]TCP Bound: 11161 DPM
[10]; compound 200 µM, in presence of L-Glutamate (1µM), control without compound 15466
  [³H]TCP Bound: 11880 DPM
[10]; compound 400 µM, in presence of D-AP7 (10µM), control without compound 5016
  [³H]TCP Bound: 9345 DPM
[10]; compound 400 µM, in presence of L-Glutamate (1µM), control without compound 15466
  [³H]TCP Bound: 9622 DPM
[10]; in the presence of D-APH
  effect on quantity of [³H]TCP bound: agonist effect
[10]; in the presence of L-glutamic acid
  effect on quantity of [³H]TCP specifically bound: antagonist effect

## N[C@@H](CC1CC1C(=O)O)C(=O)O (stereo partly drawn) [cis-L-2-amino-4,5-methyleneadipic acid, Cis-L-2-amino-4,5-methyleneadipic acid]
[4]
  Ki: 14.2 µM
[5]
  Binding Ki KA: 23.0 µM
[6]
  Ki: > 300 µM
[7]
  Antagonist activity vs NMDA: >500 µM
[8]
  Antagonist activity vs KA: >500 µM
[9]
  Antagonist activity vs QA: >500 µM

## N[C@H](CC1CC1C(=O)O)C(=O)O (stereo partly drawn) [trans-D-2-amino-4,5-methyleneadipic acid, Trans-D-2-amino-4,5-methyleneadipic acid]
[4]
  Ki: 2.2 µM
[5]
  Binding Ki KA: 25.0 µM
[6]
  Ki: > 300 µM
[7]; compound at 50 µM
  % protection vs NMDA: 50(0%)*
[7]; compound at 75 µM
  % protection vs NMDA: 75(66%)*
[7]; compound at >125 µM
  % protection vs NMDA: 100%
[7]
  Antagonist activity vs NMDA: > 125 µM
[8]
  Antagonist activity vs KA: >500 µM
[9]
  Antagonist activity vs QA: >500 µM

## N[C@@H](CC1CC1C(=O)O)C(=O)O (stereo partly drawn) [trans-L-2-amino-4,5-methyleneadipic acid, Trans-L-2-amino-4,5-methyleneadipic acid]
[4]
  Ki: 2.5 µM
[5]
  Binding Ki KA: 37.0 µM
[6]
  Ki: > 300 µM
[7]
  Antagonist activity vs NMDA: >500 µM
[8]
  Antagonist activity vs KA: >500 µM
[9]
  Antagonist activity vs QA: >500 µM
